Legend:
[1] = target: T1, SMARCA4-HiBiT HeLa cells (protein which is expressed from the SMARCA4 gene) (Homo sapiens, UniProt P51532); assay: SMARCA4 degradation assay (HiBiT-fusion HeLa cell line, 24 h, luminescence); format: cell-based
T1 construct: protein which is expressed from the SMARCA2 and SMARCA4 genes; host or cells: HeLa (SMARCA4-HiBiT engineered line)
In short: (§1)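 HeLa cells carrying HiBiT-tagged SMARCA2 or SMARCA4 were seeded at 8,000 cells/well, allowed to attach overnight at 37° C., then given compounds in a 10-point dilution series (typically 10 μM to 300 pM) for 24 hours at 37° C. Remaining tagged protein was read by HiBiT lytic luminescence, and DC50s came from dose-response curves.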

[2] = target: T2, SMARCA2-HiBiT HeLa cells (protein which is expressed from the SMARCA2 gene) (Homo sapiens, UniProt P51531); assay: SMARCA2 degradation assay (HiBiT-fusion HeLa cell line, 24 h, luminescence); format: cell-based
T2 construct: protein which is expressed from the SMARCA2 and SMARCA4 genes; host or cells: HeLa (SMARCA2-HiBiT engineered line)
T2 sequence (P51531 whole entry, the tested form may be a part): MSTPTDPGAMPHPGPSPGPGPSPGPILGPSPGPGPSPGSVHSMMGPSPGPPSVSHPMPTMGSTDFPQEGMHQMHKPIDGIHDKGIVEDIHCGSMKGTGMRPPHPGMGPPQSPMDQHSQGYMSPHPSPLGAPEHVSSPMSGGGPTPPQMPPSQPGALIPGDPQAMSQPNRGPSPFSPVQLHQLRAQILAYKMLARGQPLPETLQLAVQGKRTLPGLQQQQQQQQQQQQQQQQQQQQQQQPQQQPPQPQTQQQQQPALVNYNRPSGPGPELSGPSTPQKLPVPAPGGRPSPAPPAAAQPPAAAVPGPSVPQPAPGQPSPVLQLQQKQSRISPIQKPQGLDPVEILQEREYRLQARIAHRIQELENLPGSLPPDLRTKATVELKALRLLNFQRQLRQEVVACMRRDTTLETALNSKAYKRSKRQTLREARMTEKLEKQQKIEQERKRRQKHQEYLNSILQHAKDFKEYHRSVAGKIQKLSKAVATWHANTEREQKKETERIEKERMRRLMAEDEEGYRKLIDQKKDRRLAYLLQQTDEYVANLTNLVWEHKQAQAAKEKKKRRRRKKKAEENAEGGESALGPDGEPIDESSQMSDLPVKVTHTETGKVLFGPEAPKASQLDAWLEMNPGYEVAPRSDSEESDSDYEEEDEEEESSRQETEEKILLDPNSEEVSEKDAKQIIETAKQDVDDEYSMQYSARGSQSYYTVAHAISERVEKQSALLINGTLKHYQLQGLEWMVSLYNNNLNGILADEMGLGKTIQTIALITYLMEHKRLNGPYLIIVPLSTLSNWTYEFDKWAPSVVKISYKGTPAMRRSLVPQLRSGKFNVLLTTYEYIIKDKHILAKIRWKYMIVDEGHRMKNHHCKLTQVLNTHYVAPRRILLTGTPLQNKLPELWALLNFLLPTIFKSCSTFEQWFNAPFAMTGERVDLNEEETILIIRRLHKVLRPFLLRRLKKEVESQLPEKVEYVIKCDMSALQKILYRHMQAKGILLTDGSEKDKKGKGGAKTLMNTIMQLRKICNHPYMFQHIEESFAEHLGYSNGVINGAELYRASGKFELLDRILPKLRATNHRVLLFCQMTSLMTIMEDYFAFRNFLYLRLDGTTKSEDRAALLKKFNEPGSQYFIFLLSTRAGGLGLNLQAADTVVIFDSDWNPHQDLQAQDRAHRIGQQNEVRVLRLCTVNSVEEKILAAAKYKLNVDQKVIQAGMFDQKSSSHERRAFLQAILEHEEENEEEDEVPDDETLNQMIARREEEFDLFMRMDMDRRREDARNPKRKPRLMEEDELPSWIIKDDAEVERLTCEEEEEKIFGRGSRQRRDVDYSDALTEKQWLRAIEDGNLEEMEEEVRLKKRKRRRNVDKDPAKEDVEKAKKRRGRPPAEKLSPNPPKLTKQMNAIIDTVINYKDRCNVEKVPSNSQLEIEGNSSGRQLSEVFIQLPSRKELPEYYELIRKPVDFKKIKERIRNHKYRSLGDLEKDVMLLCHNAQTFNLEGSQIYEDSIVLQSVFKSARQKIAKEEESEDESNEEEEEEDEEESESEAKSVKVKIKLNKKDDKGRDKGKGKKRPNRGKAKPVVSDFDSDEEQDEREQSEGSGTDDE
In short: as §1

T1 sequence (P51532 whole entry, the tested form may be a part): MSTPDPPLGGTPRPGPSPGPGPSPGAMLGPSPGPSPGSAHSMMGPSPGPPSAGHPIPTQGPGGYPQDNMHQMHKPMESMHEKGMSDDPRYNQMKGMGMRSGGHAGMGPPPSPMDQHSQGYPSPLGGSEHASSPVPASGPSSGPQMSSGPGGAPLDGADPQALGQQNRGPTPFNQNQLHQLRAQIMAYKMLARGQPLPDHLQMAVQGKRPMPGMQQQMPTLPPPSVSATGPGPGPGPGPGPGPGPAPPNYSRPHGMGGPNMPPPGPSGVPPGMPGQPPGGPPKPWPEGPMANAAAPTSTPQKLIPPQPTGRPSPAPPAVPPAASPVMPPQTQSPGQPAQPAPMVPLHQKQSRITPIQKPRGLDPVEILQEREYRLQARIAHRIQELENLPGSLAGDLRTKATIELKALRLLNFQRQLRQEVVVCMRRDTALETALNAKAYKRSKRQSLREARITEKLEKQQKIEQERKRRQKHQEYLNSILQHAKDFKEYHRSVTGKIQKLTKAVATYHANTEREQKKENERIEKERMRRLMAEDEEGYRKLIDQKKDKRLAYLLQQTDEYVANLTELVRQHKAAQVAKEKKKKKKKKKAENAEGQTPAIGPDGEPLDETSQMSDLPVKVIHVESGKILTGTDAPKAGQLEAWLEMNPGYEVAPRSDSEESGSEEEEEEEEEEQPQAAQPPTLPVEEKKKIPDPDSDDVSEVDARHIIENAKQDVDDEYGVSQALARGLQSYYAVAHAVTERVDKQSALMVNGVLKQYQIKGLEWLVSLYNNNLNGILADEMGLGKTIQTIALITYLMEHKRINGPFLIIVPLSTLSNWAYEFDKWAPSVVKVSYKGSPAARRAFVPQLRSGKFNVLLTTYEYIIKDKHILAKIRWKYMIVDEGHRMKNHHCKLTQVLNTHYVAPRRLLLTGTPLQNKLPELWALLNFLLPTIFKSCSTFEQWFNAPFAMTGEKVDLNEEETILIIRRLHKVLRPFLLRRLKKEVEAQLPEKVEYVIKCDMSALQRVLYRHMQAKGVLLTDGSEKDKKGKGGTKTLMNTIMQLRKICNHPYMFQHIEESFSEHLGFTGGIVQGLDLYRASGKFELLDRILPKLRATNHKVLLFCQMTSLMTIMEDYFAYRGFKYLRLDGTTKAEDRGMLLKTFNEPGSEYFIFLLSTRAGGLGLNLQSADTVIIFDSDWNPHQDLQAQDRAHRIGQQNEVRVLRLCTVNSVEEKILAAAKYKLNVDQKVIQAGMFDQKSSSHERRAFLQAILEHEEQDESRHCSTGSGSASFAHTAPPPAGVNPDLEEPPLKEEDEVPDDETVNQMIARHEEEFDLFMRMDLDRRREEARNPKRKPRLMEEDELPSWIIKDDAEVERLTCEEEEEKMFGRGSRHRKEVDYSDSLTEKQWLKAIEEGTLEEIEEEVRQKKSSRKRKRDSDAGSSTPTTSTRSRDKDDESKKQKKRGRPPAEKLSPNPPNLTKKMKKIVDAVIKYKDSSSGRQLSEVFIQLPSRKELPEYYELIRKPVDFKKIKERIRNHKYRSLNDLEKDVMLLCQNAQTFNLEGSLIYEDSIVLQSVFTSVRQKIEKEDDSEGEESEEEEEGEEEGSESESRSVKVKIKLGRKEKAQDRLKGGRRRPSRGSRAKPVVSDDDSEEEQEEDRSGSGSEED

DC50 [1] [nM]	inhibition at 1 µM [1] [%]	DC50 [2] [nM]	SMARCA2 % Degradation @ 1 μM [2]	Compound
50 to 500	30 to 70	50 to 500	+++ (+++=>70%)	COC/C=C/c1nccc(N2CCCN(c3cc(-c4ccccc4O)nnc3N)CC2)n1 [Compound P-159, o-(6-amino-5-{4-[2-(3-methoxy-1-propenyl)-4-pyrimidinyl]-1,4-diazepan-1-yl}-3-pyridazinyl)phenol]
50 to 500	30 to 70	50 to 500	+++ (+++=>70%)	Nc1nnc(-c2ccccc2O)cc1N1CCCN(c2ccnc(C#CCN3CCOC3=O)n2)CC1 [Compound P-374, 3-[3-(4-{4-[3-amino-6-(o-hydroxyphenyl)-4-pyridazinyl]-1,4-diazepan-1-yl}-2-pyrimidinyl)-2-propynyl]-1,3-oxazolidin-2-one]
500 to 5000	30 to 70	500 to 5000	++ (++=30-70%)	Nc1nnc(-c2ccccc2O)cc1N1CCCN(c2ccnc(C#CCNCCF)n2)CC1 [Compound P-258, o-[6-amino-5-(4-{2-[3-(2-fluoroethylamino)-1-propynyl]-4-pyrimidinyl}-1,4-diazepan-1-yl)-3-pyridazinyl]phenol]
< 50	30 to 70	< 50	++ (++=30-70%)	Cc1nn2ccn(CC#Cc3nccc(N4CCN(c5cc(-c6ccccc6O)nnc5N)CC4)n3)c(=O)c2c1C [Compound P-281, 5-[3-(4-{4-[3-amino-6-(o-hydroxyphenyl)-4-pyridazinyl]-1-piperazinyl}-2-pyrimidinyl)-2-propynyl]-2,3-dimethyl-1,5,7a-triaza-4(5H)-indenone]
50 to 500	30 to 70	50 to 500		CC(C)(C)OC(=O)N1CCC[C@H]1C#Cc1nccc(N2CCCN(c3cc(-c4ccccc4O)nnc3N)CC2)n1 [Compound P-314, tert-butyl (S)-2-[2-(4-{4-[3-amino-6-(o-hydroxyphenyl)-4-pyridazinyl]-1,4-diazepan-1-yl}-2-pyrimidinyl)ethynyl]-1-pyrrolidinecarboxylate]
50 to 500	30 to 70	50 to 500	+++ (+++=>70%)	C[C@@H]1CCN(c2cc(-c3ccccc3O)nnc2N)CCN1c1ccnc(C#CCNC(=O)OC2CC/C=C\CCC2)n1 (stereo partly drawn) [Compound P-268, 4-[(R)-4-(2-{3-[(Z)-4-cycloocten-1-yloxycarbonylamino]-1-propynyl}-4-pyrimidinyl)-5-methyl-1,4-diazepan-1-yl]-6-(o-hydroxyphenyl)-3-pyridazinamine]
50 to 500	30 to 70	< 50	+++ (+++=>70%)	Cc1cnc(C#CCN(C)C)nc1N1CCN(c2cc(-c3ccccc3O)nnc2N)CC[C@H]1C [Compound P-229, o-{5-[(R)-4-{2-[3-(dimethylamino)-1-propynyl]-5-methyl-4-pyrimidinyl}-5-methyl-1,4-diazepan-1-yl]-6-amino-3-pyridaziny1}phenol]
50 to 500	< 30	50 to 500	++ (++=30-70%)	Cc1cc(C)n(CC#Cc2nccc(N3CCN(c4cc(-c5ccccc5O)nnc4N)CC[C@H]3C)n2)n1 [Compound P-177, o-{5-[(R)-4-{2-[3-(3,5-dimethyl-1-pyrazolyl)-1-propynyl]-4-pyrimidinyl}-5-methyl-1,4-diazepan-1-yl]-6-amino-3-pyridazinyl}phenol]
50 to 500	30 to 70	50 to 500	+++ (+++=>70%)	C[C@@H]1CCN(c2cc(-c3ccccc3O)nnc2N)CCN1c1ccnc(C#CCN2CCC3(CC2)COC3)n1 [Compound P-199, o-{5-[(R)-5-methyl-4-(2-{3-(2-oxa-7-aza-7-spiro[3.5]nonyl)-1-propynyl}-4-pyrimidinyl)-1,4-diazepan-1-y1]-6-amino-3-pyridazinyl}phenol]
< 50	30 to 70	< 50	++ (++=30-70%)	CN(C)CC#Cc1nccc(N2CCCC(c3cc(-c4ccccc4O)nnc3N)CC2)n1 (stereo not drawn) [Compound P-172, o-[6-amino-5-(1-{2-[3-(dimethylamino)-1-propynyl]-4-pyrimidinyl}-4-azepanyl)-3-pyridazinyl]phenol]
< 50	30 to 70	< 50	++ (++=30-70%)	C[C@@H]1CCN(c2cc(-c3ccccc3O)nnc2N)CCN1c1ccnc(C#CC2CCCCN2C)n1 (stereo partly drawn) [Compound P-231, o-{5-[(R)-5-methyl-4-{2-[2-(1-methyl-2-piperidyl)ethynyl]-4-pyrimidinyl}-1,4-diazepan-1-yl]-6-amino-3-pyridaziny1} phenol]
50 to 500	> 70	50 to 500	+++ (+++=>70%)	C[C@@H]1CCN(c2cc(-c3ccccc3O)nnc2N)CCN1c1ccnc(/C=C/CO)n1 [Compound P-168, o-(5-{(R)-4-[2-(3-hydroxy-1-propenyl)-4-pyrimidinyl]-5-methyl-1,4-diazepan-1-y1}-6-amino-3-pyridazinyl)phenol]
500 to 5000	30 to 70	50 to 500	+++ (+++=>70%)	C[C@@H]1CCN(c2cc(-c3ccccc3O)nnc2N)CCN1c1ccnc(C#C[C@@H](C)O)n1 [Compound P-198, o-{5-[(R)-4-{2-[(R)-3-hydroxy-1-butynyl]-4-pyrimidinyl}-5-methyl-1,4-diazepan-1-yl]-6-amino-3-pyridazinyl}phenol]
50 to 500	30 to 70	50 to 500	+++ (+++=>70%)	Nc1nnc(-c2ccccc2O)cc1N1CCCN(c2ccnc(C#CCn3ccnc3)n2)CC1 [Compound P-145, 2-(5-(4-(2-(3-(1H-imidazol-1-yl)prop-1-yn-1-yl)pyrimidin-4-yl)-1,4-diazepan-1-yl)-6-aminopyridazin-3-yl)phenol]
50 to 500	30 to 70	50 to 500	+++ (+++=>70%)	C[C@H]1CCN1CC#Cc1nccc(N2CCCN(c3cc(-c4ccccc4O)nnc3N)CC2)n1 [Compound P-279, 0-{5-[4-(2-{3-[(S)-2-methyl-1-azetidinyl]-1-propynyl}-4-pyrimidinyl)-1,4-diazepan-1-y1]-6-amino-3-pyridazinyl}phenol]
< 50	30 to 70	50 to 500	++ (++=30-70%)	Cn1ccc(C(=O)NCC#Cc2nccc(N3CCN(c4cc(-c5ccccc5O)nnc4N)CC3)n2)n1 [Compound P-7, N-[3-(4-{4-[3-amino-6-(2-hydroxyphenyl)pyridazin-4-yl]piperazin-1-yl}pyrimidin-2-yl)prop-2-yn-1-yl]-1-methyl-1H-pyrazole-3-carboxamide]
50 to 500	30 to 70	50 to 500	++ (++=30-70%)	C[C@@H]1CCN(c2cc(-c3ccccc3O)nnc2N)CCN1c1ccnc(C#CCN2CC(F)(F)C2)n1 [Compound P-252, o-{5-[(R)-4-{2-[3-(3,3-difluoro-1-azetidinyl)-1-propynyl]-4-pyrimidinyl}-5-methyl-1,4-diazepan-1-yl]-6-amino-3-pyridazinyl}phenol]
500 to 5000	< 30	500 to 5000	++ (++=30-70%)	Nc1nnc(-c2ccccc2O)cc1N1CCCN(c2ccnc(C#CCNC(=O)NC3CC3)n2)CC1 [Compound P-324, 0-[6-amino-5-(4-{2-[3-(3-cyclopropylureido)-1-propynyl]-4-pyrimidinyl}-1,4-diazepan-1-yl)-3-pyridazinyl]phenol]

Compound	DC50 [1] [nM]	inhibition at 1 µM [1] [%]	DC50 [2] [nM]	SMARCA2 % Degradation @ 1 μM [2]
Nc1nnc(-c2ccccc2O)cc1N1CC2CCC(C1)N2c1ccnc(C#CCCCNC(=O)c2cc3ncccn3n2)n1 [Compound P-99, N-(5-(4-(3-(3-amino-6-(2-hydroxyphenyl)pyridazin-4-yl)-3,8-diazabicyclo[3.2.1]octan-8-yl)pyrimidin-2-yl)pent-4-yn-1-yl)pyrazolo[1,5-a]pyrimidine-2-carboxamide]	500 to 5000	< 30	500 to 5000	+ (+=<30%)
Nc1nnc(-c2ccccc2O)cc1N1CC2CCC(C1)N2c1ccnc(C#CCNc2nc3ccccc3o2)n1 [Compound P-100, 2-(6-amino-5-(8-(2-(3-(benzo[d]doxazol-2-ylamino)prop-1-yn-1-yl)pyrimidin-4-yl)-3,8-diazabicyclo[3.2.1]octan-3-yl)pyridazin-3-yl)phenol]	50 to 500	30 to 70	50 to 500	+++ (+++=>70%)
Nc1nnc(-c2ccccc2O)cc1N1CCCN(c2ccnc(C#CCN3C4CCC3CC(O)C4)n2)CC1 (stereo not drawn) [Compound P-338, 8-[3-(4-{4-[3-amino-6-(o-hydroxyphenyl)-4-pyridazinyl]-1,4-diazepan-1-yl}-2-pyrimidinyl)-2-propynyl]-8-azabicyclo[3.2.1]octan-3-ol]	50 to 500	< 30	50 to 500	++ (++=30-70%)
Nc1nnc(-c2ccccc2O)cc1N1CC2CCC(C1)N2c1ccnc(C#CCn2cncn2)n1 [Compound P-289, 0-[6-amino-5-(8-{2-[3-(1H-1,2,4-triazol-1-yl)-1-propynyl]-4-pyrimidinyl}-3,8-diazabicyclo[3.2.1]oct-3-yl)-3-pyridazinyl]phenol]	50 to 500	30 to 70	50 to 500	++ (++=30-70%)

From US20260265238A1, “COMPOUNDS AND PHARMACEUTICAL COMPOSITIONS THAT DEGRADE SWI/SNF-RELATED MATRIX-ASSOCIATED ACTIN-DEPENDENT REGULATOR OF CHROMATIN SUBFAMILY A” (Plexium, Inc., priority 2023, published 2026)
